One experiment concerns the target T1, recombinant Pf PMX (Plasmodium falciparum, UniProt Q8IAS0).
T1 construct: made in house
Put plainly: PMX biochemical FRET assay (Rh2N fluorogenic substrate cleavage). Conditions: 37 °C. The protocol: FRET Protease Assays. FRET protease assays were performed as previously described.[19, 20, 27, 28] Briefly, ten‐point 1 : 3‐fold dilution series of the compounds were prepared in 384‐well black low volume assay plates (Greiner) using an Echo555 (Labcyte). 10 mM compound stocks were transferred into assay plates such that the starting concentration was 90 μM (Pv PMV assays), 11.25 μM (renin, cathepsin D and BACE‐1 assays) or 100 nM and 10 μM (Pf PMX and Pf PMIX assays). All wells were backfilled to 200 nL DMSO such that the DMSO concentration remained constant across the assay plates (1 % final). All compound potency assays were conducted in 20 μL total volume. For each assay, 10 μL of recombinant enzymes in respective assay buffers (Table S2) were dispensed into compound containing assay plates using a Multidrop‐Combi dispenser and allowed to incubate for 15 min. Recombinant Pf PMX, Pf PMIX and Pv PMV were expressed as previously described,[23, 27, 28] and recombinant human aspartyl proteases were purchased commercially. 10 μL of the fluorogenic peptide substrates incubated at 37 °C for the duration and conditions noted in Table S2. Samples were excited at 340 nm and fluorescence emission measured at 492 nm using an Envision fluorescence plate reader (Perkin‐Elmer). The 0 % inhibition control contained DMSO alone (1 % final) and the 100 % inhibition control was in the absence of enzyme. […]
(§1) Table S2 . P rotease FRET assay conditions.
(§2) PMX as sa y PMIX PM V assay Renin assay Cathepsin D assay BA CE-1 assay E nzy me prot e as e 0.25 nM pro te a se 6 nM prot e as e q ua nti ty 0.1 nM pro t ea se 1.5 nM pro t ea se 2.5 nM pro t ea se 3 nM (Pro te os #R-001) ( Athe ns Re sea rc h (Sigma #S4195) […]
(§3) 25mM so di um acetate, 100 mM 25 mM M E S, 25 m M 50 mM Tr is, 100 mM 100 mM so di u m 20 mM so dium Buffer acetate, 0.005% sodium chloride and Tris-HCl, 0.01% N aC l, 0. 1% Bri j-35, acetate 0.02% scetate, 0.05% […]
(§4) Sub str at e DABCYL- ( DA BC YL ) - DABCYL- DABCYL-(γ- Ab u) - E[E(EDANS)]KPIL […]

The next experiment has as its target T2, recombinant Pf PMIX (Plasmodium falciparum, UniProt Q8ILG2).
T2 construct: made in house
Kind of experiment: PMIX FRET protease assay. Conditions: mean and SD of 4 replicate FRET experiments, 37 °C. Format: biochemical, P. falciparum. The protocol:
(§5) FRET Protease Assays. FRET protease assays were performed as previously described.[19, 20, 27, 28] Briefly, ten‐point 1 : 3‐fold dilution series of the compounds were prepared in 384‐well black low volume assay plates (Greiner) using an Echo555 (Labcyte). 10 mM compound stocks were transferred into assay plates such that the starting concentration was 90 μM (Pv PMV assays), 11.25 μM (renin, cathepsin D and BACE‐1 assays) or 100 nM and 10 μM (Pf PMX and Pf PMIX assays). All wells were backfilled to 200 nL DMSO such that the DMSO concentration remained constant across the assay plates (1 % final). All compound potency assays were conducted in 20 μL total volume. For each assay, 10 μL of recombinant enzymes in respective assay buffers (Table S2) were dispensed into compound containing assay plates using a Multidrop‐Combi dispenser and allowed to incubate for 15 min. Recombinant Pf PMX, Pf PMIX and Pv PMV were expressed as previously described,[23, 27, 28] and recombinant human aspartyl proteases were purchased commercially. 10 μL of the fluorogenic peptide substrates incubated at 37 °C for the duration and conditions noted in Table S2. Samples were excited at 340 nm and fluorescence emission measured at 492 nm using an Envision fluorescence plate reader (Perkin‐Elmer). The 0 % inhibition control contained DMSO alone (1 % final) and the 100 % inhibition control was in the absence of enzyme. Half‐maximal inhibitory concentration (IC50) values were calculated by GraphPad Prism (8.0.2) software using a nonlinear regression four‐parameter fit analysis using a sigmoidal dose response (variable slope).
as §1, §2, §3, §4

For a further experiment, the target named is T3, recombinant Pv PMV (Plasmodium vivax, UniProt A5K302).
T3 construct: made in house
T3 sequence (A5K302 35-536): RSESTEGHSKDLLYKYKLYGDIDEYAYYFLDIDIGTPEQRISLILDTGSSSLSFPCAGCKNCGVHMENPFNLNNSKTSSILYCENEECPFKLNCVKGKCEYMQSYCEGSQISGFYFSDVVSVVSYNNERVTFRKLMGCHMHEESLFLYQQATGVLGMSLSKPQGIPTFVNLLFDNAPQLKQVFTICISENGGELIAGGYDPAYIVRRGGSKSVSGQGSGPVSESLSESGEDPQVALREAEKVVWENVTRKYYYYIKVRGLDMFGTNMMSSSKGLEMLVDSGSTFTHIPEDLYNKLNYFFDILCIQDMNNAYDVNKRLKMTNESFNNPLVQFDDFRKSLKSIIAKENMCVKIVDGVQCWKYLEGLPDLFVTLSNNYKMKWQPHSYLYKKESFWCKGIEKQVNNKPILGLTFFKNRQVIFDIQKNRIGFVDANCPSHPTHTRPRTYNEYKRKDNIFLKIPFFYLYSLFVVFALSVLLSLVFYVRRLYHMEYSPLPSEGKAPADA
Kind of experiment: PMV FRET protease assay. Format: biochemical. The protocol:
as §5, §1, §2, §3, §4

The target of a further experiment is T4, cathepsin D (Homo sapiens, UniProt P07339).
T4 construct: purchased Athens Research 16-12-030104
T4 sequence (P07339 65-412): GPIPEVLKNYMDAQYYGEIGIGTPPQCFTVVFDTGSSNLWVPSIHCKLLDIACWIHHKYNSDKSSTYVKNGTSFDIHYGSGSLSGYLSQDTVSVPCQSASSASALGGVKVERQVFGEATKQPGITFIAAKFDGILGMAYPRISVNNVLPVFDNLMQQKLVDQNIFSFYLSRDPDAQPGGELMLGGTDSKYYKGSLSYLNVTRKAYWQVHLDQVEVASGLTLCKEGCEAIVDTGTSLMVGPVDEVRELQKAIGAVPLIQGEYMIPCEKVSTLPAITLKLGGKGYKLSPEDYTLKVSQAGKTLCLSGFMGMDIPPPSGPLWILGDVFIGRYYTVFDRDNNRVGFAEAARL
Put plainly: Cathepsin D FRET protease assay. The experiment is classed as biochemical. Conditions: mean and SD of 4 replicate FRET experiments, 37 °C; highest concentration tested 11 μM.

For another experiment, the target named is T5, BACE‐1 (Homo sapiens, UniProt P56817).
T5 construct: purchased Sigma S4195
T5 sequence (P56817 46-460 limits assumed): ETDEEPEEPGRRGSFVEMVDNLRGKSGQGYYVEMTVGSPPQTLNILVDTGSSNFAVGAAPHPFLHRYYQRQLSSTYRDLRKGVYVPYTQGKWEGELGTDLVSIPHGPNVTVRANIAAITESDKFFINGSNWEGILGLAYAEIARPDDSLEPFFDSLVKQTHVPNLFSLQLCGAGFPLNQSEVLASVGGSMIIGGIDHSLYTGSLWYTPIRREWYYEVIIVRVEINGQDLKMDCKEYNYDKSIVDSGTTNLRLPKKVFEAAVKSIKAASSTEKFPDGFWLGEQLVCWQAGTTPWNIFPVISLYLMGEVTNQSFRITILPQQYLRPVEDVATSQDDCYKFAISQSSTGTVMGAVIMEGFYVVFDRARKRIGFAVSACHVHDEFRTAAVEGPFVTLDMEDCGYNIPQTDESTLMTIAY
Put plainly: BACE-1 FRET protease assay. Format: biochemical. Conditions: mean and SD of 4 replicate FRET experiments, 37 °C; highest concentration tested 11 μM.

In experiment [1] the test system is P. falciparum 3D7 parasites. Kind of experiment: Asexual stage of arrest assay (Giemsa smears, SYBR green flow cytometry). Format: cell-based. The protocol:
Asexual stage of arrest phenotyping. Inhibition of PMX prevents parasites from egressing from the host erythrocyte and arrests asexual stage parasites at the late schizont stage. […] In this assay, highly synchronized asexual ring stage parasites were treated with ten times the EC50 of 38 and 49c (2) and the DMSO vehicle control. The parasite stage of arrest was analyzed by microscopy of Giemsa‐stained blood smears, while parasitemia was quantified by flow cytometry at 12, 24, 36 and 48 hours.
Stage Arrestment Assay. As previously described,[42] P. falciparum 3D7 parasites were synchronized using a 5 % D‐sorbitol solution prior to assay set‐up. Ring‐staged parasites were adjusted to a final parasitemia and haematocrit of 1 % and 2 %, respectively. Compounds were added to a final concentration of 10×EC50 which were replenished after 24 h. Plates were incubated at 37°C for 48 h and blood smears and 50 μL aliquots in triplicate were harvested every 12 h. Aliquots for flow cytometry analysis were fixed in 0.25 % glutaraldehyde for 30 min at room temperature before being washed in PBS and stored at 4 °C until completion of the assay. To determine parasitemia, fixed blood pellets were stained with 50 μL 2.5×SYBR Green (Invitrogen) for 30 min before being diluted with 180 μL of PBS. 100 000 cells for each sample were counted using an Attune Flow Cytometer (ThermoFisher Scientific). Blood smears were stained with Giemsa and morphology of parasites were examined using a Zeiss Axio Observer microscope.
On the technique in general: Flow cytometry measures light scatter and fluorescence of single cells or particles in a stream.

Where [2] appears, read: Table 3, mean and SD of 4 replicate FRET experiments.
Setting [3] is: recombinant PMX, fluorogenic substrate (Rh2N) cleavage, 4 h, mean and SD of 4 replicates (Tables 1, 2).

Data on two compounds can be found in publication PMC9804387, “Substrate Peptidomimetic Inhibitors of P. falciparum Plasmepsin X with Potent Antimalarial Activity” (Chemmedchem, 2022).

Where a name gives a salt, the structure may show the parent alone. Bounds are passed on as bounds.

T1 sequence (Q8IAS0 222-573): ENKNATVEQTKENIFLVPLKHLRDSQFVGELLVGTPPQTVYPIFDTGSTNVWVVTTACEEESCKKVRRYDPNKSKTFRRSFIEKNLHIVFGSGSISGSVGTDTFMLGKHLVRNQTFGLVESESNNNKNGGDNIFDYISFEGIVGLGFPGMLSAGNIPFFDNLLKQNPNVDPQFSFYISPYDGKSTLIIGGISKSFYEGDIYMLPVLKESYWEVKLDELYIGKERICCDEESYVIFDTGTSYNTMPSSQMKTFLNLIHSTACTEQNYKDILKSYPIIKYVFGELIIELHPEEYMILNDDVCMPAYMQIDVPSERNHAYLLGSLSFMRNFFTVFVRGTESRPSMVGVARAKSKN
T2 sequence (Q8ILG2 whole entry): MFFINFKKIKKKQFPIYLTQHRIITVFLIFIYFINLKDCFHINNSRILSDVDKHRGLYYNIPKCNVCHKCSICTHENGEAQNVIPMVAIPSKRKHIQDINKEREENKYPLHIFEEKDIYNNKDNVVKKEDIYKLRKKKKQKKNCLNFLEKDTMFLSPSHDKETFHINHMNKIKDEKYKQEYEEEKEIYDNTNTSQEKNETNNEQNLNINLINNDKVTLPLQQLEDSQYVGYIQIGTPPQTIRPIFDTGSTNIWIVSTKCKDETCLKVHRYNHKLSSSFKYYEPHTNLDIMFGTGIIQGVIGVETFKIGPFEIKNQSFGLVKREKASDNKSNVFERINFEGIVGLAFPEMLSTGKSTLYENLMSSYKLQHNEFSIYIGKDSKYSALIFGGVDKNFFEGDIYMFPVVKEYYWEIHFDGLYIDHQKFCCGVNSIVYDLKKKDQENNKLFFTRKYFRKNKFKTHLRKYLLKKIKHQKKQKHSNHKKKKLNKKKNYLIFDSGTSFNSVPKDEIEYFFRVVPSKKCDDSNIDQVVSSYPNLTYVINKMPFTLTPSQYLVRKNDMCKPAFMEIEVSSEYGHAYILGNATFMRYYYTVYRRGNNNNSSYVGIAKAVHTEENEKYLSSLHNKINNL

As to `C[C@@H](NC[C@@H](O)[C@H](Cc1ccccc1)NC(=O)[C@H](CO)NC(=O)OCc1ccccc1)c1ccccc1` [Compd 38, Cbz‐Ser‐Phe‐HEA‐Bn(CH3)⋅TFA], the IC50 (commonly the concentration at which inhibition is half-maximal) on recombinant Pf PMX (setting [2]) is 60 nM; on recombinant Pf PMX (setting [3]), 60 nM; on recombinant Pf PMIX, 41 µM; on recombinant Pv PMV it was greater than 90 µM; at cathepsin D, greater than 11 µM; on BACE‐1 it was greater than 11 µM. For the same compound, in experiment [1] (38 at 10×EC50 (900 nM), SYBR green flow cytometry at 12, 24, 36, 48 h), the “parasitemia / establishment of infection by flow cytometry” value is reported as “unable to establish infection beyond 36 h”. The “asexual parasite stage of arrest” value in experiment [1] (38 at 10×EC50 (900 nM), synchronized ring stage parasites, Giemsa smears, up to 48 h) is given as “arrests asexual parasites at the schizont stage”.

Take `C[C@@H](NC[C@@H](O)[C@H](Cc1ccccc1)NC(=O)c1ccc(C(=O)N2CCN(C)CC2)cc1)c1ccccc1` [Compd 2, reference compound]: the concentration for half-maximal inhibition (IC50) on recombinant Pf PMX (setting [2]) was 1 nM; on recombinant Pf PMX (setting [3]) it was 1 nM; at recombinant Pf PMIX it was 15.1 µM; at recombinant Pv PMV, greater than 90 µM; at cathepsin D, greater than 11 µM; against BACE‐1, greater than 11 µM. Moreover, in experiment [1] (49c (2) at 10×EC50 (6 nM), Giemsa smears and flow cytometry, up to 48 h), the “merozoite egress / stage of arrest” value is given as “inhibition of merozoite egress”.
